Marks after values point to notes of the source that are not given here. Side chains are listed from the residue outwards. Ends that are not written are not given here.
Columns and labels:
[1] = test system: thrombus from rat arterial blood; experiment: In vitro thrombolysis; set-up: species or system SD rats; conditions: 2 h at 37° C., n = 6
Procedure: SD rats (male, 350 to 400 g) were anaesthetized by intraperitoneal injection of a urethane solution at a dosage of 1200 mg/kg. The anaesthetized rats were fixed in a supine position, and the right common carotid artery was dissected, clamped at the proximal end with an arterial clip, and penetrated with a suture at the proximal and distal ends, respectively. The suture at the distal end is clipped tightly by a hemostatic clamp at the fur. Cannulation was performed at the distal end, the artery clamp was removed, and the total arterial blood was discharged into a 50 ml container previously treated with silicone oil. […] rat arterial blood was injected into a vertically fixed glass tube (20 mm in length, with an inner diameter of 4 mm and an outer diameter of 5 mm, sealed with a rubber stopper at the bottom), into which was immediately inserted a thrombus immobilization screw made of stainless steel. […] 40 min after the blood was coagulated, the rubber stopper at the bottom of the glass tube was removed, the stem of the thrombus immobilization screw was nipped by forceps, and the thrombus-wrapped thrombus immobilization screw was carefully taken out from the glass tube. The screw was then suspended and dipped in triple-distilled water to remove excessive blood, and accurately weighed after 1 h. The thrombus was suspended in 8 mL of normal saline, or a solution of compounds Ia-Il in normal saline (at a concentration of 100 nM), or a solution of ARPAK (SEQ. ID NO. 4), GRPAK (SEQ. ID NO. 5), RPAK (SEQ. ID NO. 3) or PAK in normal saline (at a concentration of 100 nM), or a solution of urokinase in normal saline (100 IU/mL), then shaked at 37° C. in a thermostatic shaker (63 r/min), and removed after 2 h and accurately weighed to determine the weight of the thrombus.

euglobulin clot = experiment: Euglobulin clot lysis; format: biochemical, Pig; conditions: after 4 h, n = 3
Procedure: Pig blood was taken and mixed with 3.8% sodium citrate in a volume ratio of 9:1, immediately centrifuged at 3000 r/min for 10 min, and platelet-poor plasma was separated. 2 mL platelet-poor pig plasma and 36 mL ultrapure water were added into a 50 mL centrifuge tube. In each tube, 0.4 mL acetic acid (1%) was added and thoroughly mixed, and the tube was placed in a 4° C. refrigerator for 10 min and then centrifuged at 3000 r/min for 10 min. The centrifuge tubes were inverted, and then the inner wall of the tubes was dried using a filter paper after the liquid was drained. The euglobuin pellets resulting from centrifugation was freeze-dried for about 40 min and scratched out. About 35 mg euglobuin was taken and dissolved in 7 ml borax buffer (pH 9.28). The euglobuin were mostly dissolved after 1 h, into which 0.7 mL CaCl2 solution (25 mM) was added, and immediately plated on a 10×10 cm glass plate with a thickness of about 1 mm. After clot formation, 10 μL normal saline, or 10 μL of a solution of one of compounds Ia to Il in normal saline (1 mM) or 10 μL of a urokinase solution in normal saline (0.8 mg/mL) was pipetted and spotted onto the clot plate, with an interval between every two drops more than 1.5 cm, and each sample was spotted 3 times.

thrombus = experiment: In vivo thrombolysis, rat arteriovenous bypass thrombolysis model; set-up: species or system SD rats; conditions: after 1 h, n = 10
Procedure: SD rats (male, 220 to 230 g) were anaesthetized by intraperitoneal injection of a urethane solution at a dosage of 1200 mg/kg. The anaesthetized rats were fixed in a supine position, and the right common carotid artery was dissected, clamped at the proximal end with an arterial clip, and penetrated with a suture at the proximal and distal ends, respectively. The suture at the distal end is clipped tightly by a hemostatic clamp at the fur. Cannulation was performed at the distal end, the arterial clamp was removed, and about 1 ml arterial blood was discharged into a 1 ml eppendorf. 0.1 ml rat arterial blood was injected into a vertically fixed glass tube (15 mm in length, with an inner diameter of 2.5 mm and an outer diameter of 5.0 mm, sealed with a rubber stopper at the bottom), into which was immediately inserted a thrombus immobilization screw made of stainless steel. […] 15 min after the blood was coagulated, the rubber stopper at the bottom of the glass tube was removed, the stem of the thrombus immobilization screw was nipped by forceps, and the thrombus-wrapped thrombus immobilization screw was carefully taken out of the glass tube and then accurately weighed.
A bypass cannula was composed of 3 segments. The middle segment was a polyethylene tubing having a length of 60.0 mm and an inner diameter of 3.5 mm. The segments on both ends were similar polyethylene tubes having a length of 100.0 mm, an inner diameter of 1.0 mm and an outer diameter of 2.0 mm, one end of which was pulled to form a tip, with an outer diameter of 1.0 mm, that could be inserted into the rat carotid artery or vein, and the other end of which was sheathed by a polyethylene tube having a length of 7.0 mm and an outer diameter of 3.5 mm (thickened in order to be inserted into the polyethylene tubing of the middle segment). The inner wall of the 3-segment cannula was entirely silylated (with 1% silicone oil in ethyl ether). The thrombus-wrapped thrombus immobilization screw was placed into the polyethylene tubing of the middle segment, and both ends of the tubing sheathed the thickened ends of the two polyethylene tubes. The cannula was filled with a heparin solution in normal saline (50 IU/kg) through the tip end by using an injector and was ready for use. The trachea of the anaesthetized rat was then dissected and tracheal cannulation was performed. The left external carotid vein of the rat was dissected, and penetrated with a suture at the proximal and distal ends, respectively. An uneven open incision was careful made on the exposed left external carotid vein, and the tip of the bypass cannula prepared as described above was inserted into the proximal end of the open incision in the left external carotid vein, away from the stem of the thrombus immobilization screw in the middle segment of the bypass cannula (which accommodated the accurately weighed thrombus immobilization screw). A precise amount of heparin in saline (50 IU/kg) was injected through the tip at the other end by using an injector. At this moment, without removing the injector from the ethylene tube, the tubing between the injector and the polyethylene tube was clamped with forceps. The blood flow was stopped by clamping the proximal end of the right common carotid artery with an arterial clip, and an uneven open incision was cut carefully across the common carotid artery near the clip. The injector was pulled out of the tip of the polyethylene tube, and the tip of the polyethylene tube was then inserted into the proximal end of the artery open incision. Both ends of the bypass cannula were fixed to the artery or vein with #4 sutures. […]

rats with stroke = experiment: Cerebral infarction volume after immediate treatment of stroke (TTC staining); format: in vivo, SD rats; conditions: n = 10
Procedure: After the rats were awake for 24 h and assessed for their degree of damage in neural function in Experimental example 6, they were anesthesized with urethane followed by immediate decapitation and removal of the brain. Brain tissues were kept in a −20° C. refrigerator for 2 h, and coronal sections of about 2 mm were successively sliced from the prefrontal end for a total of 6 sections, and then placed into a 2% TTC solution to incubate in darkness at 37° C. for 30 min. The color change in brain sections was observed: normal brain tissues were stained red by TTC, while ischemic brain tissues, i.e., brain tissues with infracts, appeared in a white color. Photographs were taken by using a digital camera and processed with SPSS statistics software, and the volume of infarction in brain tissues and the volume of normal brain tissues in the coronal sections were calculated.

Substance	Weight reduction in thrombus (Mean ± SD mg) ([1]; 100 nM)	Diameter (Mean ± SD mm) of euglobulin clot lysis (euglobulin clot; 10 μL of 1 mM solution)	Weight reduction in thrombus (Mean ± SD mg) (thrombus; 0.1 μmol/kg)	Percentage of infarction volume (Mean ± SD %) (rats with stroke)	Weight reduction in thrombus (Mean ± SD mg) ([1]; urokinase 100 IU/mL)	Diameter (Mean ± SD mm) of euglobulin clot lysis (euglobulin clot; 10 μL of urokinase 0.8 mg/mL)	Weight reduction in thrombus (Mean ± SD mg) (thrombus; urokinase 20000 IU/kg)	Percentage of infarction volume (Mean ± SD %) (rats with stroke; urokinase 20000 IU/kg, immediate treatment)
1,3-dioxo-2-{4′-oxyacetyl-[N^ω-(Ala-Arg-Pro-Ala-Lys)-Lys-Arg-Gly-Asp-Phe]phenyl}-4,4,5,5-tetramethylimidazoline [Ic]	27.33 ± 2.07 mg	3.8 mm	15.79 ± 3.07 mg	7.40 ± 1.65%				
1,3-dioxo-2-{4′-oxyacetyl-[N^ω-(Ala-Arg-Pro-Ala-Lys)-Lys-Arg-Gly-Asp-Ser]phenyl}-4,4,5,5-tetramethylimidazoline [Ia]	28.50 ± 2.59 mg	4.0 mm	15.39 ± 3.19 mg	7.21 ± 0.82%				
1,3-dioxo-2-{4′-oxyacetyl-[N^ω-(Ala-Arg-Pro-Ala-Lys)-Lys-Arg-Gly-Asp-Val]phenyl}-4,4,5,5-tetramethylimidazoline [Ib]	28.17 ± 2.31 mg	5.2 mm	14.35 ± 2.95 mg	7.13 ± 0.83%				
1,3-dioxo-2-{4′-oxyacetyl-[N^ω-(Arg-Pro-Ala-Lys)-Lys-Arg-Gly-Asp-Phe]phenyl}-4,4,5,5-tetramethylimidazoline [Ii]	24.83 ± 1.17 mg	4.0 mm	15.73 ± 2.95 mg	7.06 ± 1.08%				
1,3-dioxo-2-{4′-oxyacetyl-[N^ω-(Arg-Pro-Ala-Lys)-Lys-Arg-Gly-Asp-Ser]phenyl}-4,4,5,5-tetramethylimidazoline [Ig]	27.83 ± 2.56 mg	5.2 mm	16.35 ± 2.42 mg	6.40 ± 0.28%				
1,3-dioxo-2-{4′-oxyacetyl-[N^ω-(Arg-Pro-Ala-Lys)-Lys-Arg-Gly-Asp-Val]phenyl}-4,4,5,5-tetramethylimidazoline [Ih]	29.33 ± 3.01 mg	4.2 mm	15.37 ± 1.82 mg	7.35 ± 1.14%				
1,3-dioxo-2-{4′-oxyacetyl-[N^ω-(Gly-Arg-Pro-Ala-Lys)-Lys-Arg-Gly-Asp-Phe]phenyl}-4,4,5,5-tetramethylimidazoline [If]	15.29 ± 3.36 mg	4.5 mm	15.29 ± 3.36 mg	7.47 ± 1.31%				
1,3-dioxo-2-{4′-oxyacetyl-[N^ω-(Gly-Arg-Pro-Ala-Lys)-Lys-Arg-Gly-Asp-Ser]phenyl}-4,4,5,5-tetramethylimidazoline	14.17 ± 3.55 mg	5.2 mm	14.17 ± 3.55 mg	8.21 ± 1.91%				
1,3-dioxo-2-{4′-oxyacetyl-[N^ω-(Pro-Ala-Lys)-Lys-Arg-Gly-Asp-Phe]phenyl}-4,4,5,5-tetramethylimidazoline (K([Lys-Ala-Pro])RGDF; not fully specified (N-terminus); also: 4′-oxyacetylphenyl-1,3-dioxo-4,4,5,5-tetramethylimidazoline (nitronyl nitroxide) conjugate, attachment amine not clear) [Il]	25.83 ± 2.31 mg	4.2 mm	16.21 ± 2.84 mg	6.56 ± 0.41%				
1,3-dioxo-2-{4′-oxyacetyl-[N^ω-(Pro-Ala-Lys)-Lys-Arg-Gly-Asp-Ser]phenyl}-4,4,5,5-tetramethylimidazoline (K([Lys-Ala-Pro])RGDS; not fully specified (N-terminus); also: 4′-oxyacetylphenyl-1,3-dioxo-4,4,5,5-tetramethylimidazoline (nitronyl nitroxide) conjugate, attachment amine not clear) [Ij]	26.16 ± 3.15 mg	4.0 mm	14.89 ± 1.84 mg	6.84 ± 0.82%				
1,3-dioxo-2-{4′-oxyacetyl-[N^ω-(Pro-Ala-Lys)-Lys-Arg-Gly-Asp-Val]phenyl}-4,4,5,5-tetramethylimidazoline (K([Lys-Ala-Pro])RGDV; not fully specified (N-terminus); also: 4′-oxyacetylphenyl-1,3-dioxo-4,4,5,5-tetramethylimidazoline (nitronyl nitroxide) conjugate, attachment amine not clear) [Ik]	25.00 ± 1.54 mg	4.5 mm	15.47 ± 2.61 mg	7.86 ± 1.02%				
urokinase					58.33 ± 4.08^a mg	10.7 mm	18.02 ± 2.32^a mg	11.00 ± 2.42 ^b %
